Tests used:
human TLR9 = target: T1, human TLR9 (Homo sapiens, UniProt Q9NR96); assay: TLR9 inhibition reporter assay (HEK-Blue cells, SEAP reporter); format: cell-based; conditions: HEK-Blue cells overexpressing human TLR9, stimulated with ODN2006 5 nM, 22 hour incubation
T1 construct: host or cells: HEK-Blue cells
T1 sequence (Q9NR96 26-1032): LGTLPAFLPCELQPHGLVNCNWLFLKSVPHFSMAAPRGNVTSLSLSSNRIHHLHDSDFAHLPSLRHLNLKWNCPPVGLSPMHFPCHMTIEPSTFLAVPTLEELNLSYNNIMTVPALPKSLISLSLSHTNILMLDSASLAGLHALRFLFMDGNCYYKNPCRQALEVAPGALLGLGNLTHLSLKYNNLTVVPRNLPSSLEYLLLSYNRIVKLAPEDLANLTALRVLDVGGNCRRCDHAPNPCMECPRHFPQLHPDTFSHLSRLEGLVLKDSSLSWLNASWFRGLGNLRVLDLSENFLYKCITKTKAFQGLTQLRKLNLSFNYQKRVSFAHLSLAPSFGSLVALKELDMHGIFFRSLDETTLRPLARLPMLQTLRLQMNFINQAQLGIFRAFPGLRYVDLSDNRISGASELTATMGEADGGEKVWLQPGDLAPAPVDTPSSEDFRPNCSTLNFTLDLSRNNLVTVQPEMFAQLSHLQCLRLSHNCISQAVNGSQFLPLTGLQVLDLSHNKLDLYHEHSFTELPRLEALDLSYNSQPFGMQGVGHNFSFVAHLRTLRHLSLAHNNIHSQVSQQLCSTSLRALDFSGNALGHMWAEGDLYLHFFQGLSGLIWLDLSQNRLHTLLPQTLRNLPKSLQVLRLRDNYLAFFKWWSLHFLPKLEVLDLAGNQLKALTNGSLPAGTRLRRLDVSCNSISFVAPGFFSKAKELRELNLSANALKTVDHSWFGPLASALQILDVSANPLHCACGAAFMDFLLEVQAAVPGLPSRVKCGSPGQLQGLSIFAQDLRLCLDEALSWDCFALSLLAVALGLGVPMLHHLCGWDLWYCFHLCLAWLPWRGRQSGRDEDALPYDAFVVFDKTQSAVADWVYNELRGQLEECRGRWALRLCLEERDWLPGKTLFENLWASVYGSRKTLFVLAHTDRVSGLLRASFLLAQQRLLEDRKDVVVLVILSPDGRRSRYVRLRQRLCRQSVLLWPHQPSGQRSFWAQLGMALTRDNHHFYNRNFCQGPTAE
In short: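 Compound dose-response (0.05 nM–50 μM final) on agonist-stimulated human TLR9 HEK-Blue cells, 25,000/well, incubated 22 h at 37 °C, 5% CO2. Readout was secreted alkaline phosphatase under an IFN-β minimal promoter with NF-κB/AP-1 sites; inhibition expressed relative to DMSO and reference-inhibitor controls.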

human TLR7 = target: T2, human TLR7 (Homo sapiens, UniProt Q9NYK1); assay: TLR7 inhibition reporter assay (HEK-Blue cells, SEAP reporter); format: cell-based; conditions: HEK-Blue cells overexpressing human TLR7, stimulated with gardiquimod 7.5 μM, 22 hour incubation
T2 construct: host or cells: HEK-Blue cells
T2 sequence (Q9NYK1 27-1049): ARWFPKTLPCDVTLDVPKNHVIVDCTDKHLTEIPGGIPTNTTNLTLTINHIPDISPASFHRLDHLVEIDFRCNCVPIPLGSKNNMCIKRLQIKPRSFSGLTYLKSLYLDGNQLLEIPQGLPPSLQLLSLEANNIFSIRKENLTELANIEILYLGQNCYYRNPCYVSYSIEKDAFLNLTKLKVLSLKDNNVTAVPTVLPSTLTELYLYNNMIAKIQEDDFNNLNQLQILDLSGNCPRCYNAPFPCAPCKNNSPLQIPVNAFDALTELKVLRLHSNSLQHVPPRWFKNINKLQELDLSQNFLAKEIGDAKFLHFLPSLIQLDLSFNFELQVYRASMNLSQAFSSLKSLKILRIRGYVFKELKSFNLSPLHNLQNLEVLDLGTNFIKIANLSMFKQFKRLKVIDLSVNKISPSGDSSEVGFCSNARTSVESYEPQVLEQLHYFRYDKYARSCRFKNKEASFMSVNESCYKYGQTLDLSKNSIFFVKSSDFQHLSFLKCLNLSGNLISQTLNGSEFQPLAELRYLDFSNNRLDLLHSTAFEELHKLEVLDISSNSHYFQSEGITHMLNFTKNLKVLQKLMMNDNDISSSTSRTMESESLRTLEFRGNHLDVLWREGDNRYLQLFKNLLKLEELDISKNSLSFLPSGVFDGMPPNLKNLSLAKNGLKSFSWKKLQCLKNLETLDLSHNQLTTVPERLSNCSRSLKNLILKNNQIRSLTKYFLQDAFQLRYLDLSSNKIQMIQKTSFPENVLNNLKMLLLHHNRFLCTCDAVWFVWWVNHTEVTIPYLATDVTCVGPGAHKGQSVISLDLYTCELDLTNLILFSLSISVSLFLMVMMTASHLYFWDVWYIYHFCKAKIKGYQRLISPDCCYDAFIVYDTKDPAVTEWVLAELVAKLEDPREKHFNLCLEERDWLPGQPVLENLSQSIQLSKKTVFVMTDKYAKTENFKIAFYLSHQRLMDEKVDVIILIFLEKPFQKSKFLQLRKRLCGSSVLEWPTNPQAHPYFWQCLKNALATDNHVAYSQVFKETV
Method: TLR7/8/9 Inhibition Reporter Assays
HEK-Blue™-cells (Invivogen) overexpressing human TLR7, TLR8 or TLR9 receptors were used for screening inhibitors of these receptors using an inducible SEAP (secreted embryonic alkaline phosphatase) reporter gene under the control of the IFN-β minimal promoter fused to five NF-κB and AP-1-binding sites. Briefly, cells are seeded into Greiner 384 well plates (15000 cells per well for TLR7, 20,000 for TLR8 and 25,000 for TLR9) and then treated with test compounds in DMSO to yield a final dose response concentration range of 0.05 nM-50 μM. After a 30 minute compound pre-treatment at room temperature, the cells are then stimulated with a TLR7 ligand (gardiquimod at a final concentration of 7.5 μM), TLR8 ligand (R848 at a final concentration of 15.9 μM) or TLR9 ligand (ODN2006 at a final concentration of 5 nM) to activate NF-κB and AP-1 which induce the production of SEAP. After a 22 hour incubation at 37° C., 5% CO2, SEAP levels are determined with the addition of HEK-Blue™ Detection reagent (Invivogen), a cell culture medium that allows for detection of SEAP, according to manufacturer's specifications. The percent inhibition is determined as the % reduction in the HEK-Blue signal present in wells treated with agonist plus DMSO alone compared to wells treated with a known inhibitor.

Compound	IC50 (human TLR9) [nM]	IC50 (human TLR7) [nM]
COc1ccc(-c2c(C)[nH]c3cnc(C4CCN(C(=O)CCN5CCCC5)CC4)cc23)cc1OC [Example 23, 1-(4-(3-(3,4-dimethoxyphenyl)-2-methyl-1H-pyrrolo[2,3-c]pyridin-5-yl)piperidin-1-yl)-3-(pyrrolidin-1-yl)propan-1-one]	1110	> 50000
CC(C)N1CCN(c2ccc(-c3cc4c(cn3)cc(-c3ccc(S(C)(=O)=O)cc3)n4C)cc2)CC1 [Example 54, 6-(4-(4-isopropylpiperazin-1-yl)phenyl)-1-methyl-2-(4-(methylsulfonyl)phenyl)-1H-pyrrolo[3,2-c]pyridine]	42	4600
Cc1nc(-c2ccc(N3CCN(CCCO)CC3)cc2)cc2c1cc(-c1ccc(S(C)(=O)=O)cc1)n2C [Example 36, 3-(4-(4-(1,4-dimethyl-2-(4-(methylsulfonyl)phenyl)-1H-pyrrolo[3,2-c]pyridin-6-yl)phenyl)piperazin-1-yl)propan-1-ol]	59	4700
COc1ccc(-c2c(C)[nH]c3cnc(C4CCN(C5CCN(C(=O)C(C)C)CC5)CC4)cc23)cc1OC [Example 15, 1-(4-(3-(3,4-dimethoxyphenyl)-2-methyl-1H-pyrrolo[2,3-c]pyridin-5-yl)-[1,4′-bipiperidin]-1′-yl)-2-methylpropan-1-one]	39	14000
Cc1nc(-c2ccc(CN3CCN(CCC(C)(C)O)CC3)cc2)cc2c1c(F)c(-c1ccc(S(C)(=O)=O)cc1)n2C [Example 115, 4-(4-(4-(3-fluoro-1,4-dimethyl-2-(4-(methylsulfonyl)phenyl)-1H-pyrrolo[3,2-c]pyridin-6-yl)benzyl)piperazin-1-yl)-2-methylbutan-2-ol]	615	16000
COc1ccc(-c2cc3cnc(-c4ccc(N5CCN(C(=O)c6ccccc6)CC5)cc4)cc3n2C)cc1OC [Example 29, (4-(4-(2-(3,4-dimethoxyphenyl)-1-methyl-1H-pyrrolo[3,2-c]pyridin-6-yl)phenyl)piperazin-1-yl)(phenyl)methanone]	399	14400
CC(C)CN1CCN(c2ccc(-c3cc4c(cn3)cc(-c3ccc(S(C)(=O)=O)cc3)n4C)cc2)CC1 [Example 53, 6-(4-(4-isobutylpiperazin-1-yl)phenyl)-1-methyl-2-(4-(methylsulfonyl)phenyl)-1H-pyrrolo[3,2-c]pyridine]	21	> 50000
Cc1nc(-c2ccc(CN3CCN(CC(C)(C)O)CC3)cc2)cc2c1c(F)c(-c1ccc(S(C)(=O)=O)cc1)n2C [Example 122, 1-(4-(4-(3-fluoro-1,4-dimethyl-2-(4-(methylsulfonyl)phenyl)-1H-pyrrolo[3,2-c]pyridin-6-yl)benzyl)piperazin-1-yl)-2-methylpropan-2-ol]	103	17100
COc1ccc(-c2c(C)[nH]c3cnc(C4CCN(C(=O)CN(C)C)CC4)cc23)cc1OC [Example 22, 1-(4-(3-(3,4-dimethoxyphenyl)-2-methyl-1H-pyrrolo[2,3-c]pyridin-5-yl)piperidin-1-yl)-2-(dimethylamino)ethan-1-one]	1570	9700
COc1ccc(-c2c(C)n(C)c3cnc(C4CCN(C5CCN(C(=O)C(C)C)CC5)CC4)cc23)cc1OC [Example 18, 1-(4-(3-(3,4-dimethoxyphenyl)-1,2-dimethyl-1H-pyrrolo[2,3-c]pyridin-5-yl)-[1,4′-bipiperidin]-1′-yl)-2-methylpropan-1-one]	194	13600
Cc1nc(-c2ccc(C3(O)CCN(C(C)(C)C)CC3)cc2F)cc2c1cc(-c1ccc(S(C)(=O)=O)cc1)n2C [Example 108, 1-(tert-butyl)-4-(4-(1,4-dimethyl-2-(4-(methylsulfonyl)phenyl)-1H-pyrrolo[3,2-c]pyridin-6-yl)-3-fluorophenyl)piperidin-4-ol]	204	1700
COc1ccc(-c2cc3cnc(-c4ccc(N5CCN(C(C)C)CC5)nc4)cc3n2C)cc1OC [Example 31, 2-(3,4-dimethoxyphenyl)-6-(6-(4-isopropylpiperazin-1-yl)pyridin-3-yl)-1-methyl-1H-pyrrolo[3,2-c]pyridine]	72	1500
Cc1nc(-c2ccc(CN3CCN(CCCO)CC3)cc2)cc2c1cc(-c1ccc(S(C)(=O)=O)cc1)n2C [Example 58, 3-(4-(4-(1,4-dimethyl-2-(4-(methylsulfonyl)phenyl)-1H-pyrrolo[3,2-c]pyridin-6-yl)benzyl)piperazin-1-yl)propan-1-ol]	107	8200
CCN1C2CCC1CC(O)(c1ccc(-c3cc4c(cc(-c5ccc(S(C)(=O)=O)cc5)n4C)c(C)n3)cc1F)C2 [Example 101, (1R,3r,5S)-3-(4-(1,4-dimethyl-2-(4-(methylsulfonyl)phenyl)-1H-pyrrolo[3,2-c]pyridin-6-yl)-2-fluorophenyl)-8-ethyl-8-azabicyclo[3.2.1]octan-3-ol]	116	5700
Cc1nc(-c2ccc(N3CC4CCC(C3)N4CCCO)cc2)cc2c1cc(-c1ccc(S(C)(=O)=O)cc1)n2C [Example 76, 3-(3-(4-(1,4-dimethyl-2-(4-(methylsulfonyl)phenyl)-1H-pyrrolo[3,2-c]pyridin-6-yl)phenyl)-3,8-diazabicyclo[3.2.1]octan-8-yl)propan-1-ol]	53	600
Cc1nc(-c2ccc(N3CCN(CC(C)C)CC3)c(F)c2F)cc2c1cc(-c1ccc(S(C)(=O)=O)cc1)n2C [Example 82, 6-(2,3-difluoro-4-(4-isobutylpiperazin-1-yl)phenyl)-1,4-dimethyl-2-(4-(methylsulfonyl)phenyl)-1H-pyrrolo[3,2-c]pyridine]	329	6400
